# Biological target: T1, Human TRPC6 (Homo sapiens, UniProt Q9Y210)
# T1 construct: expressed in transfected cells
# T1 sequence (Q9Y210 1-931): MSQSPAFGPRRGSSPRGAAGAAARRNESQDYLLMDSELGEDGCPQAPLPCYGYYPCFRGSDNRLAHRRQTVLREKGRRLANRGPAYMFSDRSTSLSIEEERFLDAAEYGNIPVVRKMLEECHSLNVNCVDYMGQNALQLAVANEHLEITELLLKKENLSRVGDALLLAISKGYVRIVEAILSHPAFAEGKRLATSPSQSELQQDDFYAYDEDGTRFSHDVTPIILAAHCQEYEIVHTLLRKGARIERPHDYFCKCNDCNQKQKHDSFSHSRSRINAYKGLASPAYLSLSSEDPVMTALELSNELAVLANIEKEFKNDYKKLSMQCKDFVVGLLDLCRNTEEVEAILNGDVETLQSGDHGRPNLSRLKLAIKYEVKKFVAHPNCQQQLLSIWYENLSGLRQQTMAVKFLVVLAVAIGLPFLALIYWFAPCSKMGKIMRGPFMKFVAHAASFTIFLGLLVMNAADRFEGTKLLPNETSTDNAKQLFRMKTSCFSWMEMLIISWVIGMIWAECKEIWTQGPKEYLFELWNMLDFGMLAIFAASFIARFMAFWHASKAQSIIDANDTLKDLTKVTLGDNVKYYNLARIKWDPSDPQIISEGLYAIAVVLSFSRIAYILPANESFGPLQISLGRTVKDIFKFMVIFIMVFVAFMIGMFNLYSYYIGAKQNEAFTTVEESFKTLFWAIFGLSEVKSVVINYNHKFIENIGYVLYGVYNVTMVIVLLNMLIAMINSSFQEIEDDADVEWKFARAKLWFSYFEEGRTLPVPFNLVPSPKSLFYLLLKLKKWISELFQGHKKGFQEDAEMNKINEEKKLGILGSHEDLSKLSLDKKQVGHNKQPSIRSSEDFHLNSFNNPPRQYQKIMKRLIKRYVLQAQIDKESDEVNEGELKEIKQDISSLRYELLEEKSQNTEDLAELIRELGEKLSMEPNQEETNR
# Experiment: Evaluation of TRPC6 channel inhibitory activity (1), FLIPR Calcium 5 Assay Kit, OAG stimulation (Compound Nos. 1-1293)
# Format: cell-based
# Conditions: Human TRPC6 stably-expressing cells, OAG 30 μM, FLIPR Calcium 5 Assay Kit; read-out: Inhibitory activity (pIC50 class) (converted)
# Outline: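 Stable human TRPC6 line; fluorescent Ca2+ dye loading, then 20 min compound exposure before 30 μM OAG trigger. Peak-minus-baseline signal converted to % inhibition against untreated and unstimulated wells; potency given as pIC50 band.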
row,SMILES,IC50
1,"Cn1nc(C2CC2)cc1Oc1cc(C#N)ccc1-c1ccc(C2CNCCO2)cn1 (stereo not drawn) [compound 427, 3-(5-cyclopropyl-2-methylpyrazol-3-yl)oxy-4-(5-morpholin-2-ylpyridin-2-yl)benzonitrile]",10 to 1000 nM
2,"Cn1nc(-c2ccccc2)cc1Oc1cc(C#N)ccc1-c1ccc(C(N)C(=O)O)cn1 (stereo not drawn) [compound 428, 2-amino-2-[6-[4-cyano-2-(2-methyl-5-phenylpyrazol-3-yl)oxyphenyl]pyridin-3-yl]acetic acid]",10 to 1000 nM
3,"Cc1cc(Oc2cc(C#N)ccc2-c2ccc([C@H](O)CN)cn2)cc(N2CCOCC2)n1 [compound 429, 4-[5-[(1S)-2-amino-1-hydroxyethyl]pyridin-2-yl]-3-(2-methyl-6-morpholin-4-ylpyridin-4-yl)oxybenzonitrile]",< 10 nM
4,"Cc1cc(Oc2cc(C#N)ccc2-c2ncc([C@H](O)CN)cn2)cc(N2CCOCC2)n1 [compound 430, 4-[5-[(1S)-2-amino-1-hydroxyethyl]pyrimidin-2-yl]-3-(2-methyl-6-morpholin-4-ylpyridin-4-yl)oxybenzonitrile]",< 10 nM
5,"Cn1nc(C2CC2)cc1Oc1cc(C#N)ccc1-c1cnc(NCCN)nc1 [compound 431, 4-[2-(2-aminoethylamino)pyrimidin-5-yl]-3-(5-cyclopropyl-2-methylpyrazol-3-yl)oxybenzonitrile]",10 to 1000 nM
6,"Cn1nc(C2CC2)cc1Oc1cc(C#N)ccc1-c1ncc(NCCN)cn1 [compound 432, 4-[5-(2-aminoethylamino)pyrimidin-2-yl]-3-(5-cyclopropyl-2-methylpyrazol-3-yl)oxybenzonitrile]",< 10 nM

# Second part, the molecule after the results:
row,IC50,SMILES
1,10 to 1000 nM,"N#Cc1ccc(-c2ccc(C(N)C(=O)O)cn2)c(Oc2cnnc(-c3ccccc3)c2)c1 (stereo not drawn) [compound 433, 2-amino-2-[6-[4-cyano-2-(6-phenylpyridazin-4-yl)oxyphenyl]pyridin-3-yl]acetic acid]"
2,< 10 nM,"Cc1nc(Oc2cc(C#N)ccc2-c2ncc(CCN)cn2)cc(N2CCOCC2)n1 [compound 434, 4-[5-(2-aminoethyl)pyrimidin-2-yl]-3-(2-methyl-6-morpholin-4-ylpyrimidin-4-yl)oxybenzonitrile]"
3,> 1000 nM,"Cc1cc(Oc2cc(C#N)ccc2-c2ccc(C[C@H](N)C(=O)O)cc2)cc(N2CCOCC2)n1 [compound 435, (2S)-2-amino-3-[4-[4-cyano-2-(2-methyl-6-morpholin-4-ylpyridin-4-yl)oxyphenyl]phenyl]propanoic acid]"
4,> 1000 nM,"Cn1nc(C2CC2)cc1Oc1cc(C#N)ccc1-c1ccc(C[C@H](N)C(=O)O)cc1 [compound 436, (2S)-2-amino-3-[4-[4-cyano-2-(5-cyclopropyl-2-methylpyrazol-3-yl)oxyphenyl]phenyl]propanoic acid]"
5,10 to 1000 nM,"Cc1cc(Oc2cc(C#N)ccc2-c2ccc([C@H](O)CN)cn2)cc(C)n1 [compound 437, 4-[5-[(1S)-2-amino-1-hydroxyethyl]pyridin-2-yl]-3-(2,6-dimethylpyridin-4-yl)oxybenzonitrile]"
6,10 to 1000 nM,"Cc1cc(Oc2cc(C#N)ccc2-c2ncc(CCN)cn2)cc(C)n1 [compound 438, 4-[5-(2-aminoethyl)pyrimidin-2-yl]-3-(2,6-dimethylpyridin-4-yl)oxybenzonitrile]"
7,< 10 nM,"Cc1cc(Oc2cc(C#N)ccc2-c2ncc(CCN)cn2)cc(N2CCO[C@H](C(F)F)C2)n1 [compound 439, 4-[5-(2-aminoethyl)pyrimidin-2-yl]-3-[2-[(2S)-2-(difluoromethyl)morpholin-4-yl]-6-methylpyridin-4-yl]oxybenzonitrile]"
8,< 10 nM,"Cn1nc(C2CCOCC2)cc1Oc1cc(C#N)ccc1-c1ccc(CN)cn1 [compound 440, 4-[5-(aminomethyl)pyridin-2-yl]-3-[2-methyl-5-(oxan-4-yl)pyrazol-3-yl]oxybenzonitrile]"
9,< 10 nM,"Cn1nc(C2CCOCC2)cc1Oc1cc(C#N)ccc1-c1ncc(CN)cn1 [compound 441, 4-[5-(aminomethyl)pyrimidin-2-yl]-3-[2-methyl-5-(oxan-4-yl)pyrazol-3-yl]oxybenzonitrile]"
